Values after ≈ are worked out from the molar mass of the structure shown.
How the values were obtained:
Enterococcus spp. = assay: minimum inhibitory concentration (MIC)
Experimental: (§1)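 Broth microdilution MIC (Sensititre BOPO7F bovine plate, CLSI methods) of 19 antimicrobials against field isolates of P. multocida, M. haemolytica, H. somni (deep nasopharyngeal swabs) and E. coli, Enterococcus spp. (rectal swabs) from weaned dairy heifers. Incubation 16-24 h at 35 C. MIC is the lowest concentration preventing visible growth. Values with <= or > lie at the tested range limits. Trimethoprim-sulfamethoxazole is given as the trimethoprim component of a 1:19 mixture.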

Mannheimia haemolytica = assay: minimum inhibitory concentration (MIC)
Experimental: as §1

NC[C@@H]1O[C@H](O[C@H]2[C@@H](O)[C@H](O[C@@H]3[C@@H](O)[C@H](N)C[C@H](N)[C@H]3O[C@H]3O[C@H](CN)[C@@H](O)[C@H](O)[C@H]3N)O[C@@H]2CO)[C@H](N)[C@@H](O)[C@@H]1O [Neomycin]
minimum inhibitory concentration [µg/mL]
Details	Enterococcus spp.	Mannheimia haemolytica
isolate (source animal id): 2	≤ 4	–
isolate (source animal id): 8	–	> 32
isolate (source animal id): 13	–	> 32
isolate (source animal id): 18	–	> 32
isolate (source animal id): 21	–	> 32
isolate (source animal id): 25	–	> 32
isolate (source animal id): 27	–	> 32
isolate (source animal id): 28	–	8 (≈ 13 µM)
isolate (source animal id): 30	–	> 32
isolate (source animal id): 31	–	16 (≈ 26 µM)
isolate (source animal id): 32	–	> 32
isolate (source animal id): 34	–	> 32
isolate (source animal id): 35	> 32	–
isolate (source animal id): 36	–	> 32
isolate (source animal id): 37	–	> 32
isolate (source animal id): 40	–	> 32
isolate (source animal id): 41	–	> 32
isolate (source animal id): 42	> 32	–
isolate (source animal id): 43	–	> 32
isolate (source animal id): 44	> 32	–
isolate (source animal id): 46	–	> 32
isolate (source animal id): 49	–	> 32
isolate (source animal id): 50	–	> 32
isolate (source animal id): 51	–	> 32
isolate (source animal id): 52	–	> 32
isolate (source animal id): 53	–	> 32
isolate (source animal id): 55	–	32 (≈ 52.1 µM)
isolate (source animal id): 56	–	> 32
isolate (source animal id): 57	–	> 32
isolate (source animal id): 79	> 32	–
isolate (source animal id): 88	8 (≈ 13 µM)	–
isolate (source animal id): 91	8 (≈ 13 µM)	–
isolate (source animal id): 92	16 (≈ 26 µM)	–
isolate (source animal id): 100	–	> 32
isolate (source animal id): 103	–	> 32
isolate (source animal id): 107	–	> 32
isolate (source animal id): 108	–	> 32
isolate (source animal id): 111	16 (≈ 26 µM)	–
isolate (source animal id): 112	–	> 32
isolate (source animal id): 113	–	> 32
isolate (source animal id): 121	–	> 32
isolate (source animal id): 122	> 32	> 32
isolate (source animal id): 123	16 (≈ 26 µM)	> 32
isolate (source animal id): 126	–	> 32
isolate (source animal id): 133	32 (≈ 52.1 µM)	> 32
isolate (source animal id): 135	–	> 32
isolate (source animal id): 138	–	> 32
isolate (source animal id): 141	–	> 32
isolate (source animal id): 142	–	> 32
isolate (source animal id): 145	–	> 32
isolate (source animal id): 149	–	≤ 4
isolate (source animal id): 151	–	≤ 4
isolate (source animal id): 152	–	8 (≈ 13 µM)
isolate (source animal id): 154	–	8 (≈ 13 µM)
isolate (source animal id): 158	> 32	–
isolate (source animal id): 159	–	> 32
isolate (source animal id): 162	–	> 32
isolate (source animal id): 168	32 (≈ 52.1 µM)	–
isolate (source animal id): 169	16 (≈ 26 µM)	–
isolate (source animal id): 170	–	> 32
isolate (source animal id): 171	8 (≈ 13 µM)	≤ 4
isolate (source animal id): 172	–	> 32
isolate (source animal id): 173	–	> 32
isolate (source animal id): 175	> 32	–
isolate (source animal id): 177	32 (≈ 52.1 µM)	–
isolate (source animal id): 179	–	> 32
isolate (source animal id): 180	–	> 32
isolate (source animal id): 181	32 (≈ 52.1 µM)	–
isolate (source animal id): 182	32 (≈ 52.1 µM)	–
isolate (source animal id): 183	32 (≈ 52.1 µM)	> 32
isolate (source animal id): 186	–	> 32
isolate (source animal id): 187	16 (≈ 26 µM)	> 32
isolate (source animal id): 188	–	> 32
isolate (source animal id): 190	32 (≈ 52.1 µM)	8 (≈ 13 µM)
isolate (source animal id): 191	–	> 32
isolate (source animal id): 192	–	≤ 4
isolate (source animal id): 194	8 (≈ 13 µM)	–
isolate (source animal id): 195	32 (≈ 52.1 µM)	–
isolate (source animal id): 197	16 (≈ 26 µM)	–
isolate (source animal id): 201	–	> 32
isolate (source animal id): 202	–	> 32
isolate (source animal id): 209	–	> 32
isolate (source animal id): 211	> 32	8 (≈ 13 µM)
isolate (source animal id): 214	> 32	–
isolate (source animal id): 220	–	> 32
isolate (source animal id): 221	–	> 32
isolate (source animal id): 222	> 32	–
isolate (source animal id): 223	16 (≈ 26 µM)	> 32
isolate (source animal id): 228	> 32	–
isolate (source animal id): 230	> 32	–
isolate (source animal id): 233	–	> 32
isolate (source animal id): 235	> 32	–
isolate (source animal id): 236	8 (≈ 13 µM)	–
isolate (source animal id): 237	–	8 (≈ 13 µM)
isolate (source animal id): 239	≤ 4	–
isolate (source animal id): 241	> 32	> 32
isolate (source animal id): 244	8 (≈ 13 µM)	–
isolate (source animal id): 246	16 (≈ 26 µM)	–
isolate (source animal id): 247	> 32	–
isolate (source animal id): 250	16 (≈ 26 µM)	–
isolate (source animal id): 252	> 32	> 32
isolate (source animal id): 253	–	> 32
isolate (source animal id): 259	–	> 32
isolate (source animal id): 260	–	> 32
isolate (source animal id): 262	–	> 32
isolate (source animal id): 268	8 (≈ 13 µM)	–
isolate (source animal id): 282	16 (≈ 26 µM)	> 32
isolate (source animal id): 285	> 32	–
isolate (source animal id): 287	–	> 32
isolate (source animal id): 288	–	8 (≈ 13 µM)
isolate (source animal id): 289	16 (≈ 26 µM)	–
isolate (source animal id): 290	16 (≈ 26 µM)	–
isolate (source animal id): 291	–	8 (≈ 13 µM)
isolate (source animal id): 293	–	> 32
isolate (source animal id): 296	32 (≈ 52.1 µM)	–
isolate (source animal id): 298	16 (≈ 26 µM)	> 32
isolate (source animal id): 299	–	> 32
isolate (source animal id): 300	–	≤ 4
isolate (source animal id): 301	16 (≈ 26 µM)	–
isolate (source animal id): 302	–	> 32
isolate (source animal id): 304	–	> 32
isolate (source animal id): 306	–	≤ 4
isolate (source animal id): 308	–	8 (≈ 13 µM)
isolate (source animal id): 309	–	8 (≈ 13 µM)
isolate (source animal id): 310	> 32	–
isolate (source animal id): 313	–	> 32
isolate (source animal id): 318	–	> 32
isolate (source animal id): 320	16 (≈ 26 µM)	≤ 4
isolate (source animal id): 321	–	> 32
isolate (source animal id): 323	–	> 32
isolate (source animal id): 324	–	> 32
isolate (source animal id): 326	–	> 32
isolate (source animal id): 328	–	> 32
isolate (source animal id): 329	–	> 32
isolate (source animal id): 331	> 32	–
isolate (source animal id): 333	16 (≈ 26 µM)	> 32
isolate (source animal id): 335	–	> 32
isolate (source animal id): 338	–	> 32
isolate (source animal id): 341	> 32	–

Source: the supplement of paper PMC8612539
